The values that follow are results of earlier work, collected in patent publication US20240083845A1 (priority 2020, published 2024).

The subject of one series is live virus. The note with it: cited from earlier work.
Series [1] deals with ten further coronavirus strains. The note with it: read-out: Ki values against ten further coronavirus strains; cited from earlier work.

For PF-00835231, the “activity in cell-based live virus assays” value in the series on live virus is approximately 1 µM. For the same substance, in series [1], the inhibitory constant (Ki) (as a rule, a dissociation constant, usually derived from enzyme kinetics or from competition with a known ligand) is 0.03 to 4 nM.
